Laboratory results published in patent publication US5386017A, “Alkenes for producing chemiluminescent 1, 2-dioxetane compounds” (priority 1990, dated 1995).

How the values were obtained:
[1] = 25° C.; cited from earlier work
[2] = type: physicochemical; conditions: for Ea: activation energy for decomposition in xylene; for log A / k (sec^-1) at 25° C. / t1/2 at 25° C.: decomposition in xylene
Protocol: Rates of dioxetane decomposition were monitored by the decay of chemiluminescence of aerated solutions. A cylindrical Pyrex vial equipped with magnet stir bar was filled with 3-4 mL of the reaction solvent, sealed with a Teflon-lined screw cap and placed in the thermostatted sample block of the chemiluminescence-measuring apparatus (Black Box). Temperature control was provided by an external circulating water bath. Appropriate values for the instrument gain and optical slit size were selected. […]. The vial was sealed with a Teflon-lined screw cap to prevent evaporation when high temperatures were used. Measurement of the signal was begun by opening the shutter. The chemiluminescent decay was generally recorded for at least three half-lives. Calculation of the first-order rate constant, k, from the In(Intensity) vs. time data was performed by a computer program utilizing a standard least-squares treatment. The correlation coefficient, r, was typically at least 0.999 and varied less than 5% between replicate samples. The observed rate was not measurably concentration dependent.
Activation parameters for decomposition of the dioxetanes were calculated from plots of In k vs. l/T (Arrhenius eq.) or In k/t vs. l/T (Eyring eq.) by a standard least-squares linear regression analysis.

[3] = tested on: Aryl esterase (carboxylic ester hydrolase) from porcine liver; experiment: Enzymatic triggering of chemiluminescence with aryl esterase; type: biochemical; conditions: for effect of competing substrate on light intensity of dioxetane 2e reaction: 10 μL of […] added at maximum emission, pH 7.6 phosphate buffer, 37° C.
Protocol: A secondary stock solution of the acetate-protected dioxetane 2e was made by evaporating an aliquot of the methylene chloride stock equivalent to 10 micromoles of dioxetane and dissolving in 5.0 mL of 2-methoxyethanol to give a final concentration of 0.002M. […] Buffer solutions prepared in distilled water were 0.05M phosphate pH 7.6 and 8.0, 0.02M Tris (tris-hydroxymethylaminomethane maleate) pH 7.6, and pH 9.0 phosphate/borate buffer. Aryl esterase (also called carboxylic ester hydrolase (P-5221)) from porcine liver was purchased from Sigma Chemical Co. as a suspension of 11 mg of protein per mL in 3.2M (NH4)2 SO4 solution pH 8.0. Each mg of protein is equivalent to 260 Units, where 1 Unit is defined as the amount which will hydrolyze 1 micromole of ethyl butyrate in 1 minute at pH 8.0, 25° C. […] Injection of 1 μL of (0.26 units) of aryl esterase to the stirred solution caused a chemiluminescent signal to appear. The intensity reached a maximum at about 3 minutes and decayed over a 30 minute period.
3.) When distilled water was substituted for the Tris buffer, no chemiluminescence signal was observed, but on adding Tris buffer to this solution light emission similar to that above was produced. […] Addition of untreated enzyme preparation to this solution again produced light. […] The emission could be totally extinguished by addition of sufficient SDS. The decrease in light emission is not due to photophysical quenching of the excited state since thermal decomposition in the same solvent system at elevated temperatures results in readily detectable chemiluminescence.
This type of behavior explains the effect of the addition of the known esterase substrates α-naphthyl acetate and β-naphthyl acetate. […] A solution of 25 μL of the dioxetane stock (0.002M) in 3 mL of pH 7.6 phosphate buffer maintained at 37° C. was treated wtih 5μL of the enzyme to initiate the chemiluminescence. At the point of maximum emission 10 μL of 0.011M solution of either α- or β-naphthyl acetate were added.

[4] = 0.26 units aryl esterase, pH 7.6 Tris buffer, 25° C.

| Structure (SMILES) | Ea [2] | log A [2] | k (sec^-1) at 25° C. [2] | t1/2 at 25° C. [2] | further results |
| --- | --- | --- | --- | --- | --- |
| Oc1ccc(C23OCCOC2(c2ccccc2)OO3)cc1 (centres unmarked) [deprotonated dioxetane (X=O^-)] | – | – | – | – | decomposition rate relative to the protonated form (X=OH) [1]: 5.7×10^6 times faster |
| COC1(c2ccc3cc(O[Si](C)(C)C(C)(C)C)ccc3c2)OOC12C1CC3CC(C1)CC2C3 (centres unmarked) [Dioxetane 2c] | 27.0 | 11.7 | 8.72e-09 s⁻¹ | 2.5 yrs | – |
| COC1(c2ccc3cc(O)ccc3c2)OOC12C1CC3CC(C1)CC2C3 (centres unmarked) [Dioxetane 2b, 4-(6-Hydroxy-2-naphthyl)-4-methoxyspiro[1,2-dioxetane-3,2'-adamantane]] | 29.7 | 13.3 | 3.83e-09 s⁻¹ | 5.7 yrs | – |
| CC(=O)Oc1cccc2ccccc12 [α-naphthyl acetate, reference compound] | – | – | – | – | effect of competing substrate on light intensity of dioxetane 2e reaction [3]: rapid decrease in light intensity was noted followed by restoration of the original intensity within less than one minute |
| COC1(c2ccc3cc(OC(C)=O)ccc3c2)OOC12C1CC3CC(C1)CC2C3 (centres unmarked) [Dioxetane 2e, 4-(6-Acetoxy-2-naphthyl)-4-methoxyspiro[1,2-dioxetane-3,2' -adamantane]] | – | – | – | – | duration of thermal chemiluminescence ([2]; aliquot in 3 mL o-xylene at 95° C.): persisted for several hours; chemiluminescence signal without enzyme ([3]; 0.3 μmol in 3.0 mL pH 7.6 Tris buffer, 25° C., before enzyme): no chemiluminescence signal was detected; period of decay of chemiluminescence [3, 4]: 30 min; time to maximum chemiluminescence intensity [3, 4]: about 3 minutes |
| CCCCCCCCCCCCOS(=O)(=O)[O-].[Na+] [sodium lauryl sulfate (SDS), sodium lauryl sulfate, reference compound] | – | – | – | – | effect of enzyme inhibitor on light emission ([3]; added at maximum emission, Tris buffer, 1.5 μL enzyme): irreversible decrease in the intensity |
| CC(=O)Oc1ccc2ccccc2c1 [β-naphthyl acetate, reference compound] | – | – | – | – | effect of competing substrate on light intensity of dioxetane 2e reaction [3]: rapid decrease in light intensity was noted followed by restoration of the original intensity within less than one minute |
| COC1(c2ccc3ccccc3c2)OOC12C1CC3CC(C1)CC2C3 (centres unmarked) [Dioxetane 2a, 4-Methoxy-4-(2-naphthyl)spiro[1,2-dioxetane-3,2'-adamantane]] | 29.7 | 13.2 | 3.17e-09 s⁻¹ | 6.9 yrs | – |
